Laboratory results: patent publication US8476261B2, “Spirocyclic aminoquinolones as GSK-3 inhibitors” (Kyorin Pharmaceutical Co., Ltd., priority 2007, dated 2013)

Target: T1, recombinant full-length human GSK3β (Homo sapiens, UniProt P49841)
T1 construct: recombinant full-length human GSK3β (Upstate); purchased Upstate
Experiment: cell-free GSK3 kinase assay (KinaseGlo luciferase)
Format: biochemical
Conditions: Table 1; 5 μM ATP, 1 hour at 30 degrees Celsius
Procedure: Proceed to KinaseGlo luciferase reaction.
Following the completion of the kinase reaction an equal volume of KinaseGlo luciferase reagent (Promega) is added and the luminescence read using a luminescence plate reader within 5-10 minutes.

T1 sequence (P49841 whole entry): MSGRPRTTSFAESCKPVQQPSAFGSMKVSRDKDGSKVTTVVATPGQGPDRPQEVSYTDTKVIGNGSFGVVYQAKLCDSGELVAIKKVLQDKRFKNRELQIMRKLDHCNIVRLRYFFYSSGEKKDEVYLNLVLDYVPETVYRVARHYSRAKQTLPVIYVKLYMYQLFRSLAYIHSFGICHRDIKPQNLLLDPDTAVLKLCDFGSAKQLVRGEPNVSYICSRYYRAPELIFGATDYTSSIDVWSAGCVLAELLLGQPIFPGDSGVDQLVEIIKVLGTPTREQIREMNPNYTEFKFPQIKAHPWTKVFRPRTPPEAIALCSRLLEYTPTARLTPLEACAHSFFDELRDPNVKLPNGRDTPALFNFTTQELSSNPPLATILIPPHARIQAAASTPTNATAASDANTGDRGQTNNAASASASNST

SMILES | IC50 [nM]
Nc1c(F)c(NCCNc2ccccn2)c2c3c1c(=O)c(C(=O)O)cn3C1(CCC1)CCN2 [Compound 53] | 16 to 60
COc1ccc(CNc2c(F)c(N)c3c(=O)c(C(=O)O)cn4c3c2OCCC42CCC2)cc1 [Compound 55] | 61 to 150
CCN(CCCNc1c(F)c(N)c2c(=O)c(C(=O)O)cn3c2c1OCCC31CCC1)c1ccccc1 [Compound 57] | 16 to 60
Nc1c(F)c(NCCNC(=O)c2ccccn2)c2c3c1c(=O)c(C(=O)O)cn3C1(CCC1)CCO2 [Compound 58] | 16 to 60
Nc1nc(NCCNc2c(F)c(N)c3c(=O)c(C(=O)O)cn4c3c2OCCC42CCC2)ccc1[N+](=O)[O-] [Compound 61] | 61 to 150
Nc1c(F)c(NC2CCN(c3ccccn3)C2)c2c3c1c(=O)c(C(=O)O)cn3C1(CCC1)CCO2 (stereo not shown) [Compound 62] | > 150
Nc1c(F)c(N[C@H]2C[C@H]2Cc2ccccn2)c2c3c1c(=O)c(C(=O)O)cn3C1(CCCC1)CO2 [Compound 63] | > 150
Nc1c(F)c(N[C@@H]2C[C@H]2Cc2ccccn2)c2c3c1c(=O)c(C(=O)O)cn3C1(CCCC1)CO2 [Compound 64] | 16 to 60
Nc1c(F)c(NCCOc2ccccc2)c2c3c1c(=O)c(C(=O)O)cn3C1(CCCC1)CO2 [Compound 66] | > 150
CC(C)c1ccc(OCCNc2c(F)c(N)c3c(=O)c(C(=O)O)cn4c3c2OCC42CCCC2)cc1 [Compound 67] | > 150
Nc1c(F)c(NCCNC(=O)c2ccccn2)c2c3c1c(=O)c(C(=O)O)cn3C1(CCCC1)CO2 [Compound 68] | 16 to 60
Nc1c(F)c(NCCN2CCC(c3ccccc3)C2)c2c3c1c(=O)c(C(=O)O)cn3C1(CCCC1)CO2 (stereo not shown) [Compound 71] | > 150
Nc1c(F)c(NCCC(c2ccccc2)c2ccc3c(c2)OCO3)c2c3c1c(=O)c(C(=O)O)cn3C1(CCCC1)CO2 (stereo not shown) [Compound 72] | > 150
CC(COc1ccc(Cl)cc1)Nc1c(F)c(N)c2c(=O)c(C(=O)O)cn3c2c1OCC31CCCC1 (stereo not shown) [Compound 74] | > 150
Nc1c(F)c(NCCOc2ccc(-c3ccccc3)cc2)c2c3c1c(=O)c(C(=O)O)cn3C1(CCCC1)CO2 [Compound 75] | > 150
Nc1c(F)c(NCCSc2nc3ccccc3[nH]2)c2c3c1c(=O)c(C(=O)O)cn3C1(CCCC1)CO2 [Compound 76] | > 150
Nc1c(F)c(N[C@@H]2CC[C@H](c3ccccn3)C2)c2c3c1c(=O)c(C(=O)O)cn3C1(CCCC1)CO2 [Compound 79] | > 150
Nc1c(F)c(NCCNc2ccccn2)c2c3c1c(=O)ccn3C1(CCC1)CCO2 [Compound 82] | 16 to 60
Nc1c(F)c(NCCCc2ccccn2)c2c3c1c(=O)ccn3C1(CCC1)CCO2 [Compound 83] | 61 to 150
Nc1c(F)c(NCCCc2ccccn2)c2c3c1c(=O)ccn3C1(CCCC1)CO2 [Compound 85] | 16 to 60
CNC(=O)c1cn2c3c(c(NCCNc4ccccn4)c(F)c(N)c3c1=O)OCCC21CCC1 [Compound 90] | > 150
N#Cc1cn2c3c(c(NCCNc4ccccn4)c(F)c(N)c3c1=O)OCCC21CCC1 [Compound 91] | 16 to 60
N#Cc1cn2c3c(c(NCCCn4ccnc4)c(F)c(N)c3c1=O)OCCC21CCC1 [Compound 93] | 16 to 60
Cc1c(C(=O)O)c(=O)c2c(N)c(F)c(NCCNc3ccccn3)c3c2n1C1(CCC1)CCO3 [Compound 94] | 16 to 60
Nc1c(Cl)c(NCCNc2ccccn2)c2c3c1c(=O)c(C(=O)O)cn3C1(CCC1)CCO2 [Compound 95] | 61 to 150
Nc1c(F)c(NCCCn2ccnc2)c2c3c1c(=O)c(C(=O)O)cn3C1(CCCC1)CO2 [Compound 96] | < 15
Nc1c(F)c(NCCCn2ccnc2)c2c3c1c(=O)c(C(=O)O)cn3C1(CCC1)CCO2 [Compound 97] | 16 to 60
Nc1c(F)c(N2CCC(Nc3ccccn3)C2)c2c3c1c(=O)c(C(=O)O)cn3C1(CCCC1)CO2 (stereo not shown) [Compound 98] | > 150
Cc1cc(=O)c2c(N)c(F)c(NCCNc3ccccn3)c3c2n1C1(CCC1)CCO3 [Compound 99] | > 150

Second part, the compound after the results:

IC50 [nM] | SMILES
< 15 | Nc1c(F)c(NCCCc2ccccn2)c2c3c1c(=O)c(C(=O)O)cn3C1(CCC1)CCO2 [Compound 56]
< 15 | Nc1c(F)c(NCCCc2ccc(F)cc2)c2c3c1c(=O)c(C(=O)O)cn3C1(CCC1)CCO2 [Compound 59]
< 15 | Nc1c(F)c(NCCCn2ccnc2)c2c3c1c(=O)c(C(=O)O)cn3C1(CCC1)CCO2 [Compound 60]
< 15 | Nc1c(F)c(NCCCc2ccccc2)c2c3c1c(=O)c(C(=O)O)cn3C1(CCCC1)CO2 [Compound 65]
< 15 | COc1cccc(CCCNc2c(F)c(N)c3c(=O)c(C(=O)O)cn4c3c2OCC42CCCC2)c1 [Compound 69]
< 15 | Nc1c(F)c(NCCCn2cnc3ccccc32)c2c3c1c(=O)c(C(=O)O)cn3C1(CCCC1)CO2 [Compound 70]
< 15 | Nc1c(F)c(N[C@H]2CC[C@H](n3ccnc3)C2)c2c3c1c(=O)c(C(=O)O)cn3C1(CCCC1)CO2 [Compound 77]
< 15 | Nc1c(F)c(N[C@H]2CC[C@H](c3ccccn3)C2)c2c3c1c(=O)c(C(=O)O)cn3C1(CCCC1)CO2 [Compound 78]
< 15 | Nc1c(F)c(NCCCc2ccncc2)c2c3c1c(=O)c(C(=O)O)cn3C1(CCCC1)CO2 [Compound 80]
< 15 | N#Cc1ccc(CCCNc2c(F)c(N)c3c(=O)c(C(=O)O)cn4c3c2OCC42CCCC2)nc1 [Compound 81]
< 15 | Nc1c(F)c(NCCCn2ccnc2)c2c3c1c(=O)ccn3C1(CCC1)CCO2 [Compound 84]
< 15 | NC(=O)c1cn2c3c(c(NCCNc4ccccn4)c(F)c(N)c3c1=O)OCCC21CCC1 [Compound 86]
< 15 | NNC(=O)c1cn2c3c(c(NCCNc4ccccn4)c(F)c(N)c3c1=O)OCCC21CCC1 [Compound 88]
< 15 | Nc1c(F)c(NCCNc2ccccn2)c2c3c1c(=O)c(C(=O)NO)cn3C1(CCC1)CCO2 [Compound 89]
